# Source: patent US6576595B1, “Xanthone derivatives, processes for their preparation and their use for controlling harmful fungi, and compositions comprising these derivatives” (BASF Aktiengesellschaft, priority 2001, dated 2003)
# Assays:
# [1] = test system: mildew of wheat (Blumeria graminis forma specialis tritici); test: activity against powdery mildew of wheat (protective spray test on potted wheat seedlings); format: in vivo; settings: wheat seedlings cultivar Kanzler, sprayed 24 h before inoculation, assessed visually after 7 days, untreated plants 90% infected
# Procedure: The active compounds were prepared separately or jointly as a 10% strength emulsion in a mixture of 70% by weight of cyclohexanone, 20% by weight of Nekanil® LN (Lutensol® AP6, wetting agent having emulsifying and dispersing action based on ethoxylated alkylphenols) and 10% by weight of Wettol® EM (nonionic emulsifier based on ethoxylated castor oil) and diluted with water to the desired concentration.
# Use example—activity against powdery mildew of wheat
# Leaves of potted wheat seedlings of the cultivar “Kanzler” were sprayed to runoff point with an aqueous preparation of active compound which had been prepared from a stock solution of 10% of active compound, 63% of cyclohexanone and 27% of emulsifier. 24 hours after the spray coating had dried on, the leaves were dusted with spores of mildew of wheat (Blumeria graminis forma specialis tritici). The test plants were then placed in a greenhouse at 20-24° C. and 60 to 90% relative atmospheric humidity.
# After 7 days, the extent of the mildew development was determined visually in % infection of the entire leaf area.
Structure (SMILES),melting point [°C],extent of the mildew development in % infection of the entire leaf area ([1]; 4 ppm active compound),extent of the mildew development in % infection of the entire leaf area ([1]; 16 ppm active compound)
COc1cc(C)c2c(=O)c3c(OC)cccc3oc2c1OC,158,–,–
COc1cc(C)c2c(=O)c3c(oc2c1OC)C(Br)=CCC3(C)OC (centres unmarked),162,–,–
"COc1cc(C)c2c(=O)c3c(C)c(Cl)ccc3oc2c1OC [I-5, 7-chloro-3,4-dimethoxy-1,8-dimethylxanthen-9-one]",180,not more than 3%,not more than 3%
